Test results reported in patent US20240075032A1, “A Pharmaceutical Composition for Treating Cancer” (XUANZHU BIOPHARMACEUTICAL CO., LTD., priority 2020, published 2024).

What was measured:
MCF7 = assay: Cell proliferation detection using BrdU method (MCF7); assay type: cell-based; details: Homo sapiens, 48 hours, fixed-ratio combination 640:3.2 nM series, concentration axis = compound of Formula (I), read-out: Cytological activity on MCF7 in vitro (IC50)
Protocol: Experimental method: Cell proliferation detection using BrdU method (BrdU cell proliferation test kit, PerkinElmer Company) • 1. Reagent and compound preparation • 1.1. Preparation of 1-fold washing solution:
A washing solution with a mother liquor concentration of 25 times was diluted into 1-fold washing solution with ultrapure water. • 1.2. Preparation of 1-fold detection antibody solution:
A BrdU-Eu detection antibody with a mother liquor concentration of 200 times was diluted into 1-fold detection antibody solution with a detection antibody diluent. • 1.3. 100-fold BrdU labeling solution:
A BrdU stock solution with a mother liquor concentration of 1000 times was diluted into 100-fold BrdU labeling solution with a culture medium corresponding to cells. • 1.4. […]
MCF7 medium: MEM+10% FBS+1% bispecific antibody+10 μg/mL human recombinant insulin • 2. […] Then resuspended with a corresponding culture medium, counted and adjustment-inoculated in a 96-well plate, the MCF7 cells were inoculated according to 8000 cells/well/100 μL, placed and cultured in a 37° C. cell incubator, and after the cells were adhered to a wall, it was replaced with a serum-free medium. • 2.2. […]
• 2.3. […] 200 μL of time-resolved immunofluorescence induction solution was added per well, and incubated at the room temperature for 15 minutes, and the fluorescence value (Flu value) was detected by a microplate reader. • 3.

[1] = tested on: MCF7 human xenograft model; assay: Tumor growth inhibition in MCF7 human xenograft model; assay type: in vivo, Balb/c female nude mouse; details: Formula (I) 30 mg/kg orally once a day 21 days, fulvestrant 5 mg/mouse subcutaneously once a week 3 weeks
Protocol: 1. Tumor Inoculating and Grouping
Estrogen was injected subcutaneously on one day before animal inoculation, twice a week, and 40 μg/20 μL for each time (estrogen specification: 4 mg/2 mL) until the experiment was ended. MCF7 cells resuspended by a serum-free medium were inoculated subcutaneously on the right rib of a Balb/c female nude mouse at 1.5×10^7+matrigel/0.2 mL (cell: matrigel=1:1). While the tumor growed to a volume mean value of 163 mm^3, it was grouped and administered. The group of the compound of Formula (I) was administered orally once a day at an dose of 30 mg/kg for 21 consecutive days; the group of the fulvestrant was administered subcutaneously once a week, 5 mg per animal, for 3 consecutive weeks; and while the compound of Formula (I) was used in combination with the fulvestrant, the same administration mode was used as while used alone.
2. Measurement and Experimental Indicator of Tumor
The tumor volume was measured twice a week with a vernier caliper, the long diameter and the short diameter of the tumor were measured, and its volume calculation formula is: volume=0.5×long diameter×short diameter^2. The relative tumor volume RTV and relative tumor volume increase ratio (T/C) were calculated according to measurement results. […]

## C[C@]12CC[C@@H]3c4ccc(O)cc4C[C@@H](CCCCCCCCC[S+]([O-])CCCC(F)(F)C(F)(F)F)[C@H]3[C@@H]1CC[C@@H]2O (stereo partly drawn) [Fulvestrant, fulvestrant]
MCF7
  IC50: 0.22 nM
[1]; combination same modes
  TGI(%): 55.9%
[1]; mean ± standard error, start about 163 mm^3, solvent control 468 ± 37
  Tumor volume at the end of administration: 216 ± 44 mm^3
